# Reference: article PMC11003996 (Cell Discovery, 2024)
# Several values for one entry are separate records, joined by “and”; a condition that tells them apart may be missing. Equal values may be shown once.
# Columns and labels:
# [1] = tested on: SARS-CoV-2 3CLpro L50F/E166V in HEK 293T cells; assay type: cell-based
# SARS-CoV-2 3CLpro T25I = assay type: biochemical
# [2] = tested on: SARS-CoV-2 3CLpro T25V in HEK 293T cells; assay type: cell-based
# SARS-CoV-2 3CLpro T25V = assay type: biochemical
# SARS-CoV-2 3CLpro M49I = assay type: biochemical
# [3] = tested on: SARS-CoV-2 3CLpro M49I in HEK 293T cells; assay type: cell-based
Compound,Inhibition of 3CLpro in HEK 293T cells: Fold change in IC50 (relative to WT) [1],Fold change in IC50 (relative to WT) (SARS-CoV-2 3CLpro T25I),Inhibition of 3CLpro in HEK 293T cells: Fold change in IC50 (relative to WT) [2],Fold change in IC50 (relative to WT) (SARS-CoV-2 3CLpro T25V),Fold change in IC50 (relative to WT) (SARS-CoV-2 3CLpro M49I),Inhibition of 3CLpro in HEK 293T cells: Fold change in IC50 (relative to WT) [3]
CC(C)(C)[C@H](NC(=O)C(F)(F)F)C(=O)N1C[C@H]2[C@@H]([C@H]1C(=O)N[C@H](C#N)C[C@@H]1CCNC1=O)C2(C)C [nirmatrelvir],18.4,,,,,
Cn1cnc(Cn2c(=O)[nH]/c(=N\c3cc4cn(C)nc4cc3Cl)n(Cc3cc(F)c(F)cc3F)c2=O)n1 [ensitrelvir],,3.2,3.3,5.7,4.5,21.8 and ~20
